Test results published in patent US9834534B2, “Neuraminidase inhibitor compounds, compositions and methods for the use thereof in anti-viral treatments” (THE UNIVERSITY OF BRITISH COLUMBIA, priority 2009, dated 2017).

How the values were obtained:
H1N1 OsR = H1N1 OsR (Influenza A virus (H1N1), UniProt Q289M4)
H1N1 = H1N1 (Influenza A virus (H1N1), UniProt Q289M4)
Chain of H1N1 (Q289M4 whole entry, looked up): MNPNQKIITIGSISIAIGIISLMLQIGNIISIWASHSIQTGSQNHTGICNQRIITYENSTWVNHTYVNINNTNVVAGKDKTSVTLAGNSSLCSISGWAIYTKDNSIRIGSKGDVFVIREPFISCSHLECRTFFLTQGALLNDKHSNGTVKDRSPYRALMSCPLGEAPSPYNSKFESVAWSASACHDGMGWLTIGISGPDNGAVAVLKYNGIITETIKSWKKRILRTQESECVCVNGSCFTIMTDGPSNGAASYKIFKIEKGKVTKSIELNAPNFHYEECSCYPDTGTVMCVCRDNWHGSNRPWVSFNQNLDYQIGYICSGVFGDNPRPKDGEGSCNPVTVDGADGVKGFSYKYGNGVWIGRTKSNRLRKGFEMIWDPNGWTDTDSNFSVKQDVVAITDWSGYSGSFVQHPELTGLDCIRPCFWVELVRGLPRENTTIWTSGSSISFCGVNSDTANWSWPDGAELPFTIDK

Chain of H1N1 OsR (Q289M4 whole entry, looked up): as above

CC(=O)NC1C(N)C(F)C(F)(C(=O)O)OC1[C@H](O)[C@H](O)CO (stereo in doubt) [Compound 2eq3eq4NH2, 5-Acetamido-2,4,5-trideoxy-4-amino-2α, 3β-difluoro-α-D-erythro-L-gluco-nonulo-pyranosonate]
Half life for reactivation (H1N1 OsR): 2 h
ki (H1N1 OsR; pH 7.6): 4.7 ± 0.1 min⁻¹
Half life for reactivation (H1N1): 4 h
